Measured values: patent publication US5237060A, “Process of preparing enantiomerically pure 1,8-bridged 4-quinolone-3-carboxylic acids” (Bayer Aktiengesellschaft, priority 1985, dated 1993)
Values after ≈ are worked out from the molar mass of the structure shown. Like-named read-outs stand apart in the source and are kept apart here.

Legend:
Assay in all cases: MIC, agar dilution test (isosensitest medium)
Format in all cases: cell-based
E. coli 4418 = conditions: Escherichia coli
Description: (§1) Agar dilution test (isosensitest medium); Denley multipoint inoculator

E. coli A 261 = conditions: Escherichia coli, A261
Description: as §1

E. coli T 7 = conditions: Escherichia coli, T7
Description: as §1

Klebsiella 57 USA = system: Klebsiella 57 USA
Description: as §1

Klebsiella 6318 = system: Klebsiella 6318
Description: as §1

Klebsiella 63 = system: Klebsiella 63
Description: as §1

Proteus 1875 = system: Proteus 1875
Description: as §1

Proteus Vulg. 1017 = system: Proteus Vulg. 1017
Description: as §1

Providencia 12012 = system: Providencia 12012
Description: as §1

Pseudomonas Ellsworth = system: Pseudomonas Ellsworth
Description: as §1

Pseudomonas Walter = system: Pseudomonas Walter
Description: as §1

Staph. 133 = system: Staph. 133
Description: as §1

Staph. 1756 = system: Staph. 1756
Description: as §1

Staph. F 422 = system: Staph. F 422
Description: as §1

Strepto 9790 = system: Strepto 9790
Description: as §1

[1] = E. coli 4418, agar dilution, read-out: MIC
[2] = Klebsiella 57 USA, agar dilution, read-out: MIC
[3] = Klebsiella 6318, agar dilution, read-out: MIC
[4] = Klebsiella 63, agar dilution, read-out: MIC
[5] = Proteus 1875, agar dilution, read-out: MIC
[6] = Proteus Vulg. 1017, agar dilution, read-out: MIC

| Compound | MIC (E. coli 4418; [1]) [µg/mL] | MIC (E. coli A 261) [µg/mL] | MIC (E. coli T 7) [µg/mL] | MIC (Klebsiella 57 USA; [2]) [µg/mL] | MIC (Klebsiella 6318; [3]) [µg/mL] | MIC (Providencia 12012) [µg/mL] | MIC (Pseudomonas Ellsworth) [µg/mL] | MIC (Pseudomonas Walter) [µg/mL] | MIC (Staph. 133) [µg/mL] | MIC (Staph. 1756) [µg/mL] | MIC (Staph. F 422) [µg/mL] | MIC (Strepto 9790) [µg/mL] | MIC (Klebsiella 63; [4]) [µg/mL] | MIC (Proteus 1875; [5]) [µg/mL] | MIC (Proteus Vulg. 1017; [6]) [µg/mL] | other results |
| --- | --- | --- | --- | --- | --- | --- | --- | --- | --- | --- | --- | --- | --- | --- | --- | --- |
| CC1COc2c(N3CCN(C)CC3)c(F)cc3c(=O)c(C(=O)O)cn1c23 (racemic) [Ofloxacin, reference compound] | 0.25 (≈ 0.692 µM) | 0.03 (≈ 0.083 µM) | 0.06 (≈ 0.166 µM) | 0.25 (≈ 0.692 µM) | 0.25 (≈ 0.692 µM) | 0.25 (≈ 0.692 µM) | 0.5 (≈ 1.38 µM) | 2 (≈ 5.53 µM) | 0.5 (≈ 1.38 µM) | 0.5 (≈ 1.38 µM) | 0.5 (≈ 1.38 µM) | 2 (≈ 5.53 µM) |  |  |  | MIC (Klebsiella 63; Klebsiella, 63): 0.125 µg/mL (≈ 0.346 µM); MIC (Proteus 1875): 0.125 µg/mL (≈ 0.346 µM); MIC (Proteus Vulg. 1017): 0.125 µg/mL (≈ 0.346 µM) |
| C[C@H]1COc2c(N3CCN(C)CC3)c(F)cc3c(=O)c(C(=O)O)cn1c23 [Example 4, 3S-9-fluoro-3-methyl-10(4-methyl-1-piperazinyl)-7-oxo-7H-pyrido[1,2,3-de][1,4]-benzoxazine-6-carboxylic acid] |  | ≤ 0.015 | 0.03 (≈ 0.083 µM) |  |  | 0.06 (≈ 0.166 µM) | 0.25 (≈ 0.692 µM) | 1 (≈ 2.77 µM) | 0.25 (≈ 0.692 µM) | 0.25 (≈ 0.692 µM) | 0.25 (≈ 0.692 µM) | 1 (≈ 2.77 µM) | 0.06 (≈ 0.166 µM) | 0.06 (≈ 0.166 µM) | 0.06 (≈ 0.166 µM) | MIC (E. coli 4418; 4418): 0.125 µg/mL (≈ 0.346 µM); MIC (Klebsiella 57 USA; Klebsiella, 57USA): 0.125 µg/mL (≈ 0.346 µM); MIC (Klebsiella 6318; Klebsiella, 6318): 0.125 µg/mL (≈ 0.346 µM) |
| C[C@@H]1COc2c(N3CCN(C)CC3)c(F)cc3c(=O)c(C(=O)O)cn1c23 [Example 16, 3R-9-fluoro-3-methyl-10(4-methyl-1-piperazinyl)-7-oxo-7H-pyrido[1,2,3-de][1,4]-benzoxazine-6-carboxylic acid] | 2 (≈ 5.53 µM) | 0.25 (≈ 0.692 µM) | 1 (≈ 2.77 µM) | 4 (≈ 11.1 µM) | 4 (≈ 11.1 µM) | 4 (≈ 11.1 µM) | 4 (≈ 11.1 µM) | 32 (≈ 88.6 µM) | 8 (≈ 22.1 µM) | 8 (≈ 22.1 µM) | 16 (≈ 44.3 µM) | 32 (≈ 88.6 µM) | 2 (≈ 5.53 µM) | 4 (≈ 11.1 µM) | 2 (≈ 5.53 µM) |  |
